Here are results for five compounds from patent US20220401586A1, “CARBON QUANTUM DOTS AND USES THEREOF” (CNANO MEDICINE CORP., priority 2019, published 2022).

Counter-ions that a name gives are not always drawn.

For data set [1], the target named is T1, LAT1 (Homo sapiens, UniProt Q01650).
T1 construct: we treated HeLa cells with an excess of leucine (Leu), phenylalanine (Phe), or glycine (Gly) prior to adding LAAM TC-CQDs; endogenous in cells; host or cells: HeLa (also A549, PANC-1, MCF-7, MDA-MB-231, MDA-MB-231 SP in the flow cytometry)
T1 sequence (Q01650 whole entry): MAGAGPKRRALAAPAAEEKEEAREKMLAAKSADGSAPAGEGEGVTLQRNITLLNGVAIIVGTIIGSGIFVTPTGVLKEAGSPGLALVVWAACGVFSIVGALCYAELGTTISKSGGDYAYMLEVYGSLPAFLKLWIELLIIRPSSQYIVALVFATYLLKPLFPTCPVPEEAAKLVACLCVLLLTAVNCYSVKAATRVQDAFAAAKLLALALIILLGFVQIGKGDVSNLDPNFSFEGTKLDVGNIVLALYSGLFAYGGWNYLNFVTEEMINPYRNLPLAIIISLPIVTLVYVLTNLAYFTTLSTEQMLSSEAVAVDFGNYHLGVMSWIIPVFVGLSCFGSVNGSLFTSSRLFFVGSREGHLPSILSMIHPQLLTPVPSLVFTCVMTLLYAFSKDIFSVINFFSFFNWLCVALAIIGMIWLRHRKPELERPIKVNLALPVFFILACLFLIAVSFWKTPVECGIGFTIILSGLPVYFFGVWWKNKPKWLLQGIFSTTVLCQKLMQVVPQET
T1 sequence (P08195 102-630 partner): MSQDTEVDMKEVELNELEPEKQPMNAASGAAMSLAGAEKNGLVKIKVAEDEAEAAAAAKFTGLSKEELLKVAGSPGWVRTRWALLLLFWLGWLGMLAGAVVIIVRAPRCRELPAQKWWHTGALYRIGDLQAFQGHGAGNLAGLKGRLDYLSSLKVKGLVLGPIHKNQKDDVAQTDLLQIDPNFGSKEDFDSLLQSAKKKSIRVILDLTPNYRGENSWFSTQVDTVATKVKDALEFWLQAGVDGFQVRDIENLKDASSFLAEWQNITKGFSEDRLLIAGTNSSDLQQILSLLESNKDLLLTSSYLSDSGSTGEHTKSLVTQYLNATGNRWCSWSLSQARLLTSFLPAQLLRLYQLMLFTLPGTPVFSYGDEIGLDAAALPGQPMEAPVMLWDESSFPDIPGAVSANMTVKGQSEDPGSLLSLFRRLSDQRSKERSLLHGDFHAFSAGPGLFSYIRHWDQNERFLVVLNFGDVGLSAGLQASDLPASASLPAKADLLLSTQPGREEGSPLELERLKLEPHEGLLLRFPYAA
In words: LCSM: effect of Leu, Phe, Gly or BCH pre-treatment on uptake of LAAM TC-CQDs. The class given is cell-based. The note with it: HeLa cells, excess of the agent prior to adding LAAM TC-CQDs. The procedure: (§1) To investigate the mechanism that accounts for the cellular uptake of LAAM TC-CQDs, we treated HeLa cells with an excess of leucine (Leu), phenylalanine (Phe), or glycine (Gly) prior to adding LAAM TC-CQDs. Except Gly, both Leu and Phe are known to be high-affinity substrates to LAT1^27. […] This hypothetical mechanism is supported by several lines of evidence.
Confocal laser scanning microscope imaging. […] After 8 h, cells were washed with PBS twice, fixed with 4% polyformaldehyde for 30 min at room temperature, followed by addition of DAPI for cell nuclei staining. Finally, the slides were washed three times, fixed, sealed with cover glasses, and imaged with excitation/emission: 561/700 using a confocal laser scanning microscopy (Leica TCS-SP8, Germany). To determine the effects of Leu, Phe, Gly or BCH on CQD uptake, HeLa cells were placed and treated with Leu, Phe, Gly or BCH. Four hours later, LAAM TC-CQDs were added to cells. After an additional 8 h, the cells were washed, fixed, and imaged.

Data set [2] deals with T1, LAT1. In words: Flow cytometry: uptake rate of LAAM TC-CQDs after BCH pre-treatment. It counts as cell-based. Particulars: across HeLa, A549, PANC-1, MCF-7, MDA-MB-231, MDA-MB-231 SP cells.
Description: as §1
Flow cytometry. MDA-MB-231 SP cells were sorted according to our previously reported methods^22. Briefly, cells harvested at about 85% confluence were resuspended in RPMI-1640 supplemented with 2% fetal bovine serum (FBS) at a density of 1×10^6 cells/mL and incubated with Hoechst 33342 at a concentration of 5 μg/mL at 37° C. After 90 min, the cells were suspended in cold PBS at a concentration of 1×10^6 cells/mL, filtered through a 40 μm cell strainer to remove cell aggregates, stained with 1 μg/mL propidium iodide (PI), and analyzed and sorted using a FACSDiva (Becton Dickinson, USA). […] The cells were washed 3 times with cold PBS, resuspended in […] of cold PBS, and analyzed by a FACScan flow cytometer (BD, Ann Arbor, Mich.). […] After 12 h, the cells were washed with fresh medium, trypsinized, resuspended in PBS with 0.5% FBS, and analyzed using a BD FACSCalibur (BD Biosciences, USA). Data were analyzed using FlowJo 7.6.
Background: In flow cytometry, cells or beads pass a laser one at a time.

Data set [3] is described as follows: Toxicity evaluation in mice. It counts as in vivo. The procedure:
Toxicity evaluation in mice. Female BALB/c mice were intravenously administered with TPTC (10 mg/kg, 0.05 mL per mice) or TPTC/TC-CQDs (10 mg/kg for TPTC, 0.05 mL per mice) (n=5). Mice treated with saline were used as controls. At selected time points, blood samples were collected in heparinized microhematocrit tubes and centrifuged at a speed of 3000 rpm for 10 min. At the end of the study, mice were euthanized. Major organs, including the heart, liver, spleen, kidney and lung were excised, fixed in formalin, and analyzed.

Data set [4] is described as follows: in vivo. Particulars: BALB/c, mouse, iv. How it is done: We determined the pharmacokinetics of TPTC/TC-CQDs in mice bearing HeLa tumors. TPTC or TPTC/TC-CQDs were administered intravenously at a dose equivalent to 10 mg/kg TPTC, and the blood was collected at various time points. TPTC in the plasma was quantified by high performance liquid chromatography (HPLC). […] A second cohort of mice received the same treatment was subjected to characterization for biodistribution of TPTC based on TPTC fluorescence.
The same lipid composition was used in several FDA-approved liposomal formulations, including Doxil© 38. […] The blood was collected at various time points. TPTC in the plasma was quantified by high performance liquid chromatography (HPLC).

In another data set the test system is CCC-ESF-1 cells. The experiment in a line: Cellular toxicity test (CCK-8). Particulars: concentration equivalent to 5 ug/mL TPTC. It counts as cell-based, Human. The procedure: (§2) Cellular toxicity tests. […] After 12 h, the cultured medium was removed, and washed with PBS. One hundred microliters of fresh medium containing 10 μL CCK-8 (Sigma) was added to each well. After 2 h incubation at 37° C., the absorbance at 450 nm was measured using a microplate reader.

A further data set deals with HeLa cells. The experiment in a line: Cellular toxicity test (CCK-8). It counts as cell-based, Human. The note with it: concentration equivalent to 5 ug/mL TPTC. How it is done:
as §2

Data set [5] in a line: in vivo. Particulars: BALB/c, mouse. The procedure:
We repeated the characterization studies using A549 tumours. Experiments were carried out according to the same procedures as described above.

Another data set has as its system HeLa tumors. In words: Therapeutic evaluation in mice bearing HeLa tumors. The class given is in vivo. The note with it: for tumors fifteen days later: intravenous. How it is done: We assessed TPTC/TC-CQDs for cancer treatment using mice bearing HeLa tumors. […]
Therapeutic evaluation in tumor-bearing mice. HeLa cells were subcutaneously inoculated into female BALB/c mice. When the tumor volumes reached ˜100 mm^3, the mice were intravenously administered with, saline, TPTC or TPTC/TC-CQDs (n=5). Changes in tumor volume and body weight were monitored daily. The volume of the tumor was calculated according to the following formula: V=D×d^2/2 (where D and d are the longest and shortest diameters of tumor, respectively, measured using a vernier caliper). Relative tumor volumes were calculated as V/V0(V0 is the initial tumor volume when the treatment was started).

Where [6] appears, read: 10 mg/kg TPTC (or equivalent) at days 1, 4, 8, and 12.

Consider `NC1(C(=O)O)CC2CCC1C2` (stereo not shown) [BCH, 2-aminobicyclo-(2,2,1)-heptane-2-carboxylic acid], for which, on LAT1 [1], the “effect of pre-treatment on uptake of LAAM TC-CQDs” value is recorded as “dramatically reduces”. Besides, the “cellular uptake rate of LAAM TC-CQDs after pre-treatment with BCH” value at LAT1 [2] is reported as roughly 20%.
Take `NCC(=O)O` [Gly, glycine]: the “effect of pre-treatment on uptake of LAAM TC-CQDs” value at LAT1 [1] was “not”.
The same measure, in the same setting: the value for `CC(C)C[C@H](N)C(=O)O` [Leu, leucine] was “significantly inhibited”; that for `N[C@@H](Cc1ccccc1)C(=O)O` [Phe, phenylalanine] was “significantly inhibited”.
The half-life is the time in which the quantity being followed falls by half. `CC[C@@]1(O)C(=O)OCc2c1cc1n(c2=O)Cc2cc3c(CN(C)C)c(O)ccc3nc2-1` [TPTC, topotecan hydrochloride]: the “H&E analysis of major organs” value in data set [3] was “obvious myocardial fiber rupture, diffuse ballooning degeneration of hepatocytes, pulmonary hyperemia, and focal tubular necrosis”. Moreover, the body weight result in data set [3] (throughout the study) is reported as “weight loss was observed”. Besides, the half-life amounted to 5.4 min in “in vivo [4]” (2 mg/kg), 5 min in “in vivo [4]” (10 mg/kg) and 5.9 min in the data set “in vivo [5]”. Besides, the “toxicity to non-cancerous CCC-ESF-1 cells” value in the data set on CCC-ESF-1 cells was “inhibited both cells at a comparable efficiency”. In the data set with HeLa cells, the “toxicity to HeLa cells” value is “inhibited both cells at a comparable efficiency”. Also, the median survival in the data set with HeLa tumors (2 mg/kg TPTC (or equivalent)) is reported as 30 days. Moreover, the survival with HeLa tumors (setting [6]) is listed as 40 days. Besides, the “tumors fifteen days later” value is “continuously grew” with HeLa tumors (2 mg/kg TPTC (or equivalent) at days 1, 4, 8, and 12); “continuously grew” in the data set with HeLa tumors (setting [6]).
